{"source": "paper PMC5030134", "about": "(Nature chemical biology, 2016)", "target": "T1, α-xylosidase (Xylsa) (Saccharolobus solfataricus, UniProt Q9P999)", "T1 sequence (Q9P999 1-731)": "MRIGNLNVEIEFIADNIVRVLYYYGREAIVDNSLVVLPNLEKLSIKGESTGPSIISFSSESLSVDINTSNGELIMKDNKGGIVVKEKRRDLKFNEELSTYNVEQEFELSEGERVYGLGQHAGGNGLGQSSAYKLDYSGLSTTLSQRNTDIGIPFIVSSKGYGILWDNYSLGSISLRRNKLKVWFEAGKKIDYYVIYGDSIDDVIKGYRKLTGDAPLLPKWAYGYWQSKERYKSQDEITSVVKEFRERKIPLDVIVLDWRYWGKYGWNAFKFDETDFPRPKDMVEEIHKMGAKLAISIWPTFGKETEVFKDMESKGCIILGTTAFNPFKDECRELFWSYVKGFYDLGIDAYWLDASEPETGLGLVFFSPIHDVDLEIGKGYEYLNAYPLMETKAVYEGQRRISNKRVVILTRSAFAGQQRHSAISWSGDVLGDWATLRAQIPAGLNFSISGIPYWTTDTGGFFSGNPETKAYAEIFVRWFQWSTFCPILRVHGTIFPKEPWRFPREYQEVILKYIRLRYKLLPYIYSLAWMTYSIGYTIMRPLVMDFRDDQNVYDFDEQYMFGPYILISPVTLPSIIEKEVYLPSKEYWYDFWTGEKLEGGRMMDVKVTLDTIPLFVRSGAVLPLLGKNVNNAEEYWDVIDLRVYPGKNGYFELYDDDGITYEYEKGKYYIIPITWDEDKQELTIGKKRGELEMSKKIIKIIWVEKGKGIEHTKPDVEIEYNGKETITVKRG", "assay": "HPLC and ESI-MS of digestion product", "type": "biochemical", "settings": "150 mM sodium acetate pH 5.5, 65 °C, 3 h; second step, gives G3"}
{"smiles": "Cc1cc(=O)oc2cc(O[C@@H]3O[C@H](C(=O)O)[C@@H](O)[C@H](O[C@H]4OC[C@@H](O)[C@H](O[C@@H]5O[C@H](C(=O)O)[C@@H](O)[C@H](O[C@H]6OC[C@@H](O)[C@H](O)[C@H]6O)[C@H]5O)[C@H]4O)[C@H]3O)ccc12", "note": "[G4]", "values": [{"measurement": "HPLC and ESI-MS of digestion product", "value": "The product of the first step of G5 digestion was incubated with Xylsa"}]}
